Experimental data reported in ChEMBL document CHEMBL1201862, “PubChem BioAssay data set” (2004).
The source made the active and inactive calls.

Experiments:
Format in all cases: functional
[1] = biological target: Genome polyprotein (dengue virus type 2, UniProt P29990); experiment: flavivirus cap methylation enzyme inhibition – biochemical, confirmation dose response, primary screen (AID 588689)
[2] = biological target: Homeodomain-interacting protein kinase 4 (Homo sapiens, UniProt Q8NE63)
[3] = biological target: Interleukin-1 receptor-associated kinase 4 (Homo sapiens, UniProt Q9NWZ3)
[4] = biological target: Calcium/calmodulin-dependent protein kinase type II subunit delta (Homo sapiens, UniProt Q13557)
[5] = biological target: Vascular endothelial growth factor receptor 3 (Homo sapiens, UniProt P35916);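 note: value from a kinome-wide profiling panel, with FLT4 as the panel member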
[6] = biological target: Fibroblast growth factor receptor 1 (Homo sapiens, UniProt P11362)
[7] = biological target: Serine/threonine-protein kinase Nek2 (Homo sapiens, UniProt P51955)
[8] = biological target: 3-phosphoinositide-dependent protein kinase 1 (Homo sapiens, UniProt O15530);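 note: value comes from the Navigating the Kinome panel, PDPK1 member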
Chain of 3-phosphoinositide-dependent protein kinase 1 (O15530 whole entry): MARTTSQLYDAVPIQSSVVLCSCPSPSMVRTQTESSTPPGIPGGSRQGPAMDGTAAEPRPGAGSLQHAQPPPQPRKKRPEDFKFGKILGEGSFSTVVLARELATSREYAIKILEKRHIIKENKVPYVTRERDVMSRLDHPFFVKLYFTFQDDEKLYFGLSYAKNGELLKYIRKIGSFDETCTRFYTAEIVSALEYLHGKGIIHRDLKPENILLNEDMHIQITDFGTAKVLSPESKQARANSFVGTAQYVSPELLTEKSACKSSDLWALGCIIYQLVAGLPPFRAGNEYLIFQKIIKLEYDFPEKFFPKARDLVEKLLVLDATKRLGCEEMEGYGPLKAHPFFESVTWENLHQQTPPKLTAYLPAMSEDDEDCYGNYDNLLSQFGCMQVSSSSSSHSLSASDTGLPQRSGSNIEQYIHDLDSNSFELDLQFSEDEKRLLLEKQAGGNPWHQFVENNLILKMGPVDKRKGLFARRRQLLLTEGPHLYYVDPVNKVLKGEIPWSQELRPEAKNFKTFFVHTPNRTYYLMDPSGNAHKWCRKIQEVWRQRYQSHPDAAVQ

[9] = biological target: Cyclin-dependent kinase 1 (Homo sapiens, UniProt P06493);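 note: Kinome-wide panel profiling, with the target listed as panel member CDC2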
[10] = biological target: Mitogen-activated protein kinase 8 (Homo sapiens, UniProt P45983);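 note: value comes from one member of a kinome-wide kinase profiling panel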
[11] = biological target: Testis-specific serine/threonine-protein kinase 1 (Homo sapiens, UniProt Q9BXA7)
[12] = biological target: Serine/threonine-protein kinase MRCK alpha (Homo sapiens, UniProt Q5VT25)
[13] = biological target: Lymphokine-activated killer T-cell-originated protein kinase (Homo sapiens, UniProt Q96KB5);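 note: value comes from a kinase panel screen in which TOPK was one of the panel members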
[14] = biological target: Calcium/calmodulin-dependent protein kinase type II subunit alpha (Homo sapiens, UniProt Q9UQM7); experiment: Navigating the Kinome. Panel member name: CAMK2A
[15] = biological target: Rho-associated protein kinase 1 (Homo sapiens, UniProt Q13464);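 note: measured within a broad kinome-wide panel profiling many kinases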
Chain of Rho-associated protein kinase 1 (Q13464 whole entry): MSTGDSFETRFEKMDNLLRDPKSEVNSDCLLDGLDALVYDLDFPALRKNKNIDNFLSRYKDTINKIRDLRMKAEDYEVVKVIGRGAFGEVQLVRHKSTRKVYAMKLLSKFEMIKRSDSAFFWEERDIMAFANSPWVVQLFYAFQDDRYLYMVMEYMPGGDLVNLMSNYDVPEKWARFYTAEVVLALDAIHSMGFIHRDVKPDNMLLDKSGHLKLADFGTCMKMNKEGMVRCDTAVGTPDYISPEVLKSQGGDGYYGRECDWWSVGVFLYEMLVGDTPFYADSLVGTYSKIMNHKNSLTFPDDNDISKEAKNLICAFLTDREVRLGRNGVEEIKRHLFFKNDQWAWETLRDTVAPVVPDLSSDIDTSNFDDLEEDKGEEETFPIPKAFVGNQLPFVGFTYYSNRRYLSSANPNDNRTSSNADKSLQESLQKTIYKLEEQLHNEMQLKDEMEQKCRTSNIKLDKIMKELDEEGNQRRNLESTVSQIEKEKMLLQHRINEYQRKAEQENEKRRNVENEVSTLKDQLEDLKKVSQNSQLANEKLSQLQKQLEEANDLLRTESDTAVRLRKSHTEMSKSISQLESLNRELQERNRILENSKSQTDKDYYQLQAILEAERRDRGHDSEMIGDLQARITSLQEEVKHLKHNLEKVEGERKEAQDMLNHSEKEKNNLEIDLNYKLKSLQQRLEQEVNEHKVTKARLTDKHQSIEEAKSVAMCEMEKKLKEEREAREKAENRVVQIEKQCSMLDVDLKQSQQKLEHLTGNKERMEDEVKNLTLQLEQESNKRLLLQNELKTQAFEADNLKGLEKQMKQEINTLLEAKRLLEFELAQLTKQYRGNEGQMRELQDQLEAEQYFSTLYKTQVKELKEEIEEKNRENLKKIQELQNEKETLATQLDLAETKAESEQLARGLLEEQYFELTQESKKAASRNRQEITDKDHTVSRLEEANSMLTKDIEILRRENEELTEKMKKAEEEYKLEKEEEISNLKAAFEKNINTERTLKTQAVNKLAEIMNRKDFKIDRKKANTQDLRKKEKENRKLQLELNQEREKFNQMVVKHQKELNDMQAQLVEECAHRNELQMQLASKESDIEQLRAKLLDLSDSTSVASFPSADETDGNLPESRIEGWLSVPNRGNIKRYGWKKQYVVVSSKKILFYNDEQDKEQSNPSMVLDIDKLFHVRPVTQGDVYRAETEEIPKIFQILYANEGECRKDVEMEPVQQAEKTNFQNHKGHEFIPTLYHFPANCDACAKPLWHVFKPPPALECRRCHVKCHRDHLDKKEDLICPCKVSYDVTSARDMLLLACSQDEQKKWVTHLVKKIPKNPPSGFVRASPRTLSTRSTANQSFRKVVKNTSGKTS

[16] = biological target: Tyrosine-protein kinase JAK3 (Homo sapiens, UniProt P52333)
[17] = biological target: Casein kinase I isoform delta (Homo sapiens, UniProt P48730);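 note: measured as one member (CSNK1D) of a kinome panel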
[18] = biological target: MAP kinase-interacting serine/threonine-protein kinase 2 (Homo sapiens, UniProt Q9HBH9)
[19] = biological target: Calcium/calmodulin-dependent protein kinase type II subunit beta (Homo sapiens, UniProt Q13554)
[20] = biological target: Receptor-type tyrosine-protein kinase FLT3 (Homo sapiens, UniProt P36888);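 note: FLT3 was tested as one member of a kinome-wide kinase panel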
[21] = biological target: MAP kinase-activated protein kinase 2 (Homo sapiens, UniProt P49137);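 note: measured as one member of a kinome-wide kinase panel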
[22] = biological target: Casein kinase I isoform alpha (Homo sapiens, UniProt P48729)
[23] = biological target: Serine/threonine-protein kinase PLK1 (Homo sapiens, UniProt P53350);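 note: PLK1 measured as one member of a kinome-wide profiling panel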
Chain of Serine/threonine-protein kinase PLK1 (P53350 whole entry): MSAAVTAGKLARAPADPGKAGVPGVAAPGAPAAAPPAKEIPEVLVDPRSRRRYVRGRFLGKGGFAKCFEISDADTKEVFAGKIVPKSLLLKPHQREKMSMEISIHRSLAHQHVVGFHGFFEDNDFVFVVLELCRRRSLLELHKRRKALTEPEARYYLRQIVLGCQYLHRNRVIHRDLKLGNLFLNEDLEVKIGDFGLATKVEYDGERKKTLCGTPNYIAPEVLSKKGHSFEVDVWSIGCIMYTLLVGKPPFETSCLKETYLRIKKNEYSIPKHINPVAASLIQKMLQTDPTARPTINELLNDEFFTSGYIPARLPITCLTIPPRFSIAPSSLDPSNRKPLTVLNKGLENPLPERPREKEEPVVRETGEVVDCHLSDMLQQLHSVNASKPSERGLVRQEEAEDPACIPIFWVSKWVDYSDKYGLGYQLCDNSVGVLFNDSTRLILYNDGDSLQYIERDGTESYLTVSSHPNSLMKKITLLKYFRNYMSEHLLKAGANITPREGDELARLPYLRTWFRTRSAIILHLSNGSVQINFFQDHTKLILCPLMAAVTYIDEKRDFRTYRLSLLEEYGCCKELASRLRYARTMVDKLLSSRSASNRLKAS

[24] = biological target: Aurora kinase A (Homo sapiens, UniProt O14965);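 note: value from the Navigating the Kinome kinase panel profiling, panel entry STK6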
Chain of Aurora kinase A (O14965 whole entry): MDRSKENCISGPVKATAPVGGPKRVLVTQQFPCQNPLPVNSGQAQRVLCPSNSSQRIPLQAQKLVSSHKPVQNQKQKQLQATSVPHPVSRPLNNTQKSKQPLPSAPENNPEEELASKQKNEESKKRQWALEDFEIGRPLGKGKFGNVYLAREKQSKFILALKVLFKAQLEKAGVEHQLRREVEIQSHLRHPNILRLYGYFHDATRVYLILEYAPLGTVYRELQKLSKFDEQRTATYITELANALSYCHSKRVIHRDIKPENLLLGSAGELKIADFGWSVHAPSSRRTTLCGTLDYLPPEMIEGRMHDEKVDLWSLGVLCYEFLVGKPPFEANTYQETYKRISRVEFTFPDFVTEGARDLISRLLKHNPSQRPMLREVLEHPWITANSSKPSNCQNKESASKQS

[25] = biological target: Glycogen synthase kinase-3 beta (Homo sapiens, UniProt P49841);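 note: value comes from a broad kinome profiling panel, with GSK3B as the panel member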
[26] = biological target: Mitogen-activated protein kinase 9 (Homo sapiens, UniProt P45984);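 note: value from a kinome panel profiling assay, MAPK9 panel entry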
Chain of Mitogen-activated protein kinase 9 (P45984 whole entry): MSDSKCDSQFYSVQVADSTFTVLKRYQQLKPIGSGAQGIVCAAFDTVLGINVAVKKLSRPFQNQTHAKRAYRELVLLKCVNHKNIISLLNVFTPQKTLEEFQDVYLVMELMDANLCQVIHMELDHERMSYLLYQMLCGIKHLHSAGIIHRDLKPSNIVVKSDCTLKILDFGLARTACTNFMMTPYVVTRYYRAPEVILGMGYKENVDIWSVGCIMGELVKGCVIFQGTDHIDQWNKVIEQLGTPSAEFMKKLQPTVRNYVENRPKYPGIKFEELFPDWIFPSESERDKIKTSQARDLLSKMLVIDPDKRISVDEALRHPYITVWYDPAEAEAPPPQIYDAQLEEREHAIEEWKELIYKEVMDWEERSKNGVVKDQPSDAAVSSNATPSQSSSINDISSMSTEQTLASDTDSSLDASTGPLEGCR

[27] = biological target: Maternal embryonic leucine zipper kinase (Homo sapiens, UniProt Q14680)
[28] = biological target: Activin receptor type-1 (Homo sapiens, UniProt Q04771); experiment: Navigating the Kinome. Panel member name: ACVR1
[29] = biological target: Dual specificity tyrosine-phosphorylation-regulated kinase 1B (Homo sapiens, UniProt Q9Y463); experiment: Navigating the Kinome. Panel member name: DYRK1B
[30] = biological target: Dual specificity tyrosine-phosphorylation-regulated kinase 3 (Homo sapiens, UniProt O43781);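 note: measured as one member of a broad kinase panel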
[31] = biological target: Cyclin-dependent kinase 2 (Homo sapiens, UniProt P24941);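 note: CDK2 measured as one member of a broad kinome profiling panel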
[32] = biological target: Mitogen-activated protein kinase 1 (Homo sapiens, UniProt P28482)
Chain of Mitogen-activated protein kinase 1 (P28482 whole entry): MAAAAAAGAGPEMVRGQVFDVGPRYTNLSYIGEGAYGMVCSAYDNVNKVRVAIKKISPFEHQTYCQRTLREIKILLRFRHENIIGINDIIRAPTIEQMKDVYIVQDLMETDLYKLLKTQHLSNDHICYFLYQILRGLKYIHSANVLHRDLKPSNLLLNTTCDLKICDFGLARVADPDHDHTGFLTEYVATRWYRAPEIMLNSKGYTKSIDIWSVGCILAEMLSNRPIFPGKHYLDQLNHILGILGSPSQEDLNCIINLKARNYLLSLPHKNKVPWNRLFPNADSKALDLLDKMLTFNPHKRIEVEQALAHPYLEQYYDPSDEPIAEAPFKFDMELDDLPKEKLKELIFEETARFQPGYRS

[33] = biological target: Calcium/calmodulin-dependent protein kinase type 1 (Homo sapiens, UniProt Q14012)
[34] = biological target: Serine/threonine-protein kinase 17A (Homo sapiens, UniProt Q9UEE5)
[35] = biological target: Tyrosine-protein kinase Lyn (Homo sapiens, UniProt P07948);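 note: lyn as one member of a kinase panel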
[36] = biological target: Serine/threonine-protein kinase PLK3 (Homo sapiens, UniProt Q9H4B4)
[37] = biological target: Serine/threonine-protein kinase Chk1 (Homo sapiens, UniProt O14757);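 note: measured as one member of a kinome-wide kinase profiling panel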
[38] = biological target: cGMP-dependent protein kinase 1 (Homo sapiens, UniProt Q13976);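 note: value from a kinome panel screen with PRKG1 as the panel member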
Chain of cGMP-dependent protein kinase 1 (Q13976 whole entry): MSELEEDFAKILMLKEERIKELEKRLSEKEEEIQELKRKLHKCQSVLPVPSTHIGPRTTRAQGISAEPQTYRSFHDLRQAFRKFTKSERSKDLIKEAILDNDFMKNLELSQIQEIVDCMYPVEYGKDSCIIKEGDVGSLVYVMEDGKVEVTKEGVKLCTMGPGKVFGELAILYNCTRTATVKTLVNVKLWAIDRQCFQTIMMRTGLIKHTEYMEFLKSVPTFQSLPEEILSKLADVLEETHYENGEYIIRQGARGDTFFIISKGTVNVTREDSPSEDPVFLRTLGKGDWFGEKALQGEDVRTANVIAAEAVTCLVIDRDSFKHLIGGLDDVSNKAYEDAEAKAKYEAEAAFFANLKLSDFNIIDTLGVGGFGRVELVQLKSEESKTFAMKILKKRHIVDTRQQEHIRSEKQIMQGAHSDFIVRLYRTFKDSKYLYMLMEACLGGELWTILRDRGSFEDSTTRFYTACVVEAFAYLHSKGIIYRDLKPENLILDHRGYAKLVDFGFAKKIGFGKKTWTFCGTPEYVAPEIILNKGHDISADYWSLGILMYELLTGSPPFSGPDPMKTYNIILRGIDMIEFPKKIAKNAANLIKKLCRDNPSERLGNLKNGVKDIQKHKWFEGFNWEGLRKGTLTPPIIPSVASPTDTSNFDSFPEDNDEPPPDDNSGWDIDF

[39] = biological target: Receptor tyrosine-protein kinase erbB-4 (Homo sapiens, UniProt Q15303);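 note: ERBB4 member of a kinome-wide kinase profiling panel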
[40] = biological target: Casein kinase I isoform gamma-1 (Homo sapiens, UniProt Q9HCP0);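 note: measured as the CSNK1G1 member of a kinome profiling panel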

Chain of Homeodomain-interacting protein kinase 4 (Q8NE63 whole entry): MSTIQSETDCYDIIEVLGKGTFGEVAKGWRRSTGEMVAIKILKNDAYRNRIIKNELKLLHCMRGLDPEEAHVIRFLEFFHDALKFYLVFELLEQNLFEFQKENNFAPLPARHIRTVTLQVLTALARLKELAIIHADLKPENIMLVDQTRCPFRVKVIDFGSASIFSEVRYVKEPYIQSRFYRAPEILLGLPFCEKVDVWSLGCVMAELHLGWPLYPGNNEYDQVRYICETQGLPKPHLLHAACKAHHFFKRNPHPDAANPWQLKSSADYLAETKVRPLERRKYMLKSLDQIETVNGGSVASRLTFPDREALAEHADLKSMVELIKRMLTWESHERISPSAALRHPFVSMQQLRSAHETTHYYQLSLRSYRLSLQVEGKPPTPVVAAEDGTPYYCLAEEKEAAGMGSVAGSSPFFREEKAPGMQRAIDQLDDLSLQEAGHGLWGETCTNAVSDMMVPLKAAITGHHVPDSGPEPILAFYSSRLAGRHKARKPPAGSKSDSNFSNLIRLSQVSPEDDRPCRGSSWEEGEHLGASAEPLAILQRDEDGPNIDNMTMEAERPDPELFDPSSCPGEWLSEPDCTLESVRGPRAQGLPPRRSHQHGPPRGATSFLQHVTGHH

In the case of Cc1ccc(/C=C2/C(=O)c3ccc(C(=O)O)cc3C2=O)o1, the IC50 [1] was 40100 nM (active).
In the case of Clc1cc(NC2CCCCC2)nc(-c2c[nH]c3ncccc23)n1, the Ki [2] was 1260 nM (active), the Ki [3] was 1260 nM (active) and the Ki [4] was > 3160 nM (inactive). The Ki [5] was 1000 nM (active), the Ki [6] was > 3980 nM (inactive) and the Ki [7] was 6310 nM (active). For the same molecule, the Ki [8] was 79.4 nM (active), the Ki [9] was 3160 nM (active) and the Ki [10] was 2510 nM (active). For the same molecule, the Ki [11] was 251 nM (active), the Ki [12] was 39.8 nM (active) and the Ki [13] was 6310 nM (active). The Ki [14] was > 3160 nM (inactive), the Ki [15] was > 100 nM (inactive) and the Ki [16] was > 2000 nM (inactive). For the same molecule, the Ki [17] was 1260 nM (active), the Ki [18] was 1260 nM (active) and the Ki [19] was 3160 nM (active). The Ki [20] was > 2000 nM (inactive), the Ki [21] was 2510 nM (active) and the Ki [22] was > 5010 nM (inactive). The Ki [23] was 501 nM (active), the Ki [24] was > 1580 nM (inactive) and the Ki [25] was 1260 nM (active). The Ki [26] was 3160 nM (active), the Ki [27] was 316 nM (active) and the Ki [28] was > 3980 nM (inactive). The Ki [29] was 501 nM (active), the Ki [30] was 100 nM (active) and the Ki [31] was > 1580 nM (inactive). For the same molecule, the Ki [32] was 7940 nM (active), the Ki [33] was > 1000 nM (inactive) and the Ki [34] was > 2510 nM (inactive). For the same molecule, the Ki [35] was 631 nM (active), the Ki [36] was 3980 nM (active) and the Ki [37] was 1000 nM (active). The Ki [38] was 501 nM (active), the Ki [39] was > 3980 nM (inactive) and the Ki [40] was 2510 nM (active).
